# Legend:
# Format in all cases: in vivo
# [1] = tested on: larvae of the fall army worm (Spodoptera frugiperda); assay: Spodoptera frugiperda test (cabbage leaf dip, mortality); details: mortality after 4 days, cabbage leaves dipped
# [2] = tested on: larvae of the diamond black moth Plutella xylostella; assay: Plutella xylostella test (cabbage leaf dip, mortality); details: mortality after 6 days, cabbage leaves dipped
# [3] = tested on: larvae of the beet army worm (Spodoptera exigua); assay: Spodoptera exigua test (cabbage leaf dip, mortality); details: mortality after 4 days, cabbage leaves dipped
smiles,measurement,setting,value
CN/C(=N\[N+](=O)[O-])NCc1cnc(Cl)s1 [clothianidin],Efficacy,[1]; rate of application 4 ppm,50%
O=[N+]([O-])NC1=NCCN1Cc1ccc(Cl)nc1 [imidacloprid],Efficacy,[2]; rate of application 100 ppm,15%
"CCCOC(=O)NCCCN(C)C.Cl [propamocarb-HCl, propyl[3-(dimethylamino)propyl]carbamate hydrochloride]",Efficacy,[3]; rate of application 200 ppm,0%
same,Efficacy,[1]; rate of application 200 ppm,10%
same,Efficacy,[2]; rate of application 200 ppm,0%
N#C/N=C1\SCCN1Cc1ccc(Cl)nc1 [thiacloprid],Efficacy,[1]; rate of application 20 ppm,0%
CN1COCN(Cc2cnc(Cl)s2)/C1=N\[N+](=O)[O-] [thiamethoxam],Efficacy,[3]; rate of application 20 ppm,0%
